We go through 16 molecules from PubChem BioAssay (NCI).

Each structure is given as a SMILES string.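 Cells were grown in 96-well plates and exposed to each compound for 48 hours at five concentrations; endpoints were interpolated linearly between bracketing concentrations, or set to the highest concentration if not reached. The concentration for 50% growth inhibition is given as GI50. The concentration for full growth arrest is given as TGI.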

What all share (assay): NCI tumour cell line growth inhibition, 48 h
Experiment [1] concerns COLO 205 colon.
Experiment [2] relates to EKVX NSCLC.
Experiment [3] has as its system HL-60(TB) leukemia.
For experiment [4], the system named is HOP-92 NSCLC.
In experiment [5] the test system is OVCAR-5 ovarian.
Experiment [6] deals with SK-OV-3 ovarian.
The test system of experiment [7] is SN12C renal.
The test system of experiment [8] is SNB-19 CNS.

With `O=C1NC(=O)C2C1C1C=C3c4ccccc4N(c4ccccc4)C32[C@H]2C(=O)NC(=O)[C@@H]12` (some centres undefined), the TGI in experiment [1], in experiment [2], in experiment [3], in experiment [4], in experiment [5] and in experiment [6] was greater than 100 µM in each case. Also, the TGI in experiment [7] and in experiment [8] was greater than 100 µM in each case.
As to `C#CCn1c(=O)c2cccnc2n(CC#C)c1=O`, the TGI in experiment [1], in experiment [3], in experiment [4], in experiment [5], in experiment [6] and in experiment [7] was greater than 100 µM throughout. The molecule further returned a TGI in experiment [8] greater than 100 µM.
Regarding `Cn1c2cc([N+](=O)[O-])ccc2c(=O)c2c(O)cc3c(c21)C=CC(C)(C)O3`, the TGI was greater than 100 µM in experiment [1]; greater than 100 µM in experiment [2]; greater than 100 µM in experiment [3]; 80.4 µM in experiment [5]; 87.8 µM in experiment [6]; greater than 100 µM in experiment [7]. The TGI in experiment [8] turned out to be 73 µM.
Turning to `CCc1cccc(CC)c1NC(=O)CC1SC(N)=NC1=O` (centres undefined), the TGI in experiment [1], in experiment [2], in experiment [3], in experiment [4], in experiment [5] and in experiment [6] was greater than 100 µM each time. Also, the TGI in experiment [7] and in experiment [8] was greater than 100 µM each time.
As to `CC(=O)CC(=O)NC=O`, the TGI in experiment [1], in experiment [2], in experiment [3], in experiment [4], in experiment [5] and in experiment [6] was greater than 100 µM throughout. Further, the TGI in experiment [7] and in experiment [8] was greater than 100 µM each time.
Turning to `Cc1ccc(NC(=O)/C(=N\NC(N)=S)C(C#N)c2ccccc2C)cc1C` (centres undefined), the TGI in experiment [1], in experiment [2], in experiment [3], in experiment [4], in experiment [5] and in experiment [6] was greater than 100 µM in each case. Also, the TGI in experiment [7] and in experiment [8] was greater than 100 µM each time.
Turning to `C=C1c2[nH]c3ccccc3c2CC(C(=O)O)N1C(O)c1ccc(S(=O)(=O)O)cc1` (centres undefined), the TGI in experiment [3], in experiment [4], in experiment [5], in experiment [6], in experiment [7] and in experiment [8] was greater than 100 µM in each case.
Take `N#Cc1c(-c2ccccc2)cc(-c2cccs2)c(C#N)c1N`: the TGI in experiment [2], in experiment [3], in experiment [4], in experiment [7] and in experiment [8] was greater than 100 µM in each case.
In the case of `C=CCC12CCC(=O)[C@@]1(C)CC=C(O)C2=O` (some centres undefined), the TGI in experiment [1], in experiment [2], in experiment [3], in experiment [4], in experiment [5] and in experiment [6] was greater than 100 µM in each case. The TGI in experiment [7] and in experiment [8] was greater than 100 µM throughout.
On to `O=c1c(O)cc2c(O)oc3c(=O)c(O)c(O)c4c(O)oc1c2c43`, for which the TGI in experiment [1], in experiment [2], in experiment [3], in experiment [4], in experiment [5] and in experiment [6] was greater than 100 µM throughout. Besides, the TGI in experiment [7] was 36.5 µM; in experiment [8], greater than 100 µM.
For the molecule `O=C([O-])CCc1ccccc1.O=C([O-])CCc1ccccc1.O=C([O-])CCc1ccccc1.O=C([O-])CCc1ccccc1.[Mo+2].[Mo+2]`, the GI50 in experiment [1] is greater than 100 µM; in experiment [2] it was greater than 100 µM; in experiment [3], greater than 100 µM; in experiment [4], 43.4 µM; in experiment [5], greater than 100 µM; in experiment [6], greater than 100 µM. Also, the GI50 in experiment [7] and in experiment [8] was greater than 100 µM throughout. Moreover, the TGI in experiment [1], in experiment [2], in experiment [3], in experiment [4], in experiment [5] and in experiment [6] was greater than 100 µM in each case. The TGI in experiment [7] and in experiment [8] was greater than 100 µM throughout.
Consider `Fc1ccc(C2SCc3nc4ccccc4n32)cc1F` (centres undefined), for which the TGI in experiment [1] was 90.3 µM; in experiment [2], greater than 100 µM; in experiment [3] it was 26.2 µM; in experiment [6] it was greater than 100 µM; in experiment [7], greater than 100 µM; in experiment [8], greater than 100 µM.
For `COC(=O)c1nc(C(=O)OC)c2c([nH]c3ccccc32)c1C(=O)OC`, the TGI in experiment [1], in experiment [4], in experiment [5] and in experiment [7] was greater than 100 µM in each case.
On to `N#CC(/C(=N/NC(N)=S)C(=O)Nc1cccc(Cl)c1)c1ccccc1` (centres undefined), for which the TGI in experiment [1], in experiment [2], in experiment [3], in experiment [4], in experiment [5] and in experiment [6] was greater than 100 µM throughout. In addition, the TGI in experiment [7] and in experiment [8] was greater than 100 µM in each case.
On to `O=C1C(=C([O-])c2ccccc2)C(=O)c2ccccc21.O=C1C(=C([O-])c2ccccc2)C(=O)c2ccccc21.[Co+2]`, for which the GI50 in experiment [1] is 38.5 µM; in experiment [2] it was greater than 100 µM; in experiment [4] it was 62.4 µM; in experiment [5], greater than 100 µM; in experiment [6], greater than 100 µM; in experiment [7], greater than 100 µM. The GI50 in experiment [8] is greater than 100 µM. The TGI in experiment [1], in experiment [2], in experiment [4], in experiment [5], in experiment [6] and in experiment [7] was greater than 100 µM each time. Besides, the TGI in experiment [8] is greater than 100 µM.
As to `C=C(COC(C)=O)CC(/C=C(\C)CC/C=C(\C)CO)OC(C)=O` (centres undefined), the TGI in experiment [1], in experiment [2], in experiment [3], in experiment [4], in experiment [5] and in experiment [6] was greater than 100 µM each time. For the same molecule, the TGI in experiment [7] and in experiment [8] was greater than 100 µM each time.
